For data set [1] the following is noted: cited from earlier work.
Data set [2] has as its system MDA-MB-231 breast cancer cells. Nature of the data set: Cell survival assay (crystal violet, 5 days). It is filed as cell-based. As for the experimental part: Breast cancer cell line MDA-MB-231 was generously donated by the Burrow Lab at Tulane University School of Medicine. Cells were maintained in 5% CO2 at 37° C. and cultured in Dulbecco's modified Eagle's medium (DMEM) supplemented with 10% Hyclone Cosmic Calf Serum (HyClone Laboratories, Utah), 50 ng/mL insulin (Sigma-Aldrich, St. Louis, Mo., USA), and 1% MEMAA, NEAA, sodium pyruvate, and antibiotic-antimycotic (Gibco, Dublin, Ireland).
MDA-MB-231 breast cancer cells were seeded at a density of 5000 cells per well in cell culture medium on 96-well Corning Costar tissue culture plastic plates (Corning Life Sciences, Corning, N.Y., USA). After 24 hours in culture, cells were treated with vehicle control (DMSO), PLGA NPs (negative control), AL-PLGA NPs (negative control), free GDC-0623 (positive control), PLGA-GDC NPs, or AL-PLGA-GDC NPs. […] Following treatment, cells were cultured for 5 days and then stained with crystal violet. Crystal violet was eluted with 33% acetic acid, and absorbance at 570 nm was measured with a BioTek Cytation 3 plate reader (BioTek Instruments Inc, Winooski, Vt., USA). The experiment was carried out with both internal replicates (n=3) and biological replicates (n=3).

Each structure is given as a SMILES string. Marks after values point to notes of the source that are not given here.

As for `O=C(NOCCO)c1ccc2cncn2c1Nc1ccc(I)cc1F` [GDC-0623], the pharmacokinetic characteristics entry in data set [1] (Phase I trials) is “dose-proportional and time-dependent”. Further, the tolerability result in data set [1] (Phase I trials) is on record as “well-tolerated”. The accumulation at steady-state entry in data set [1] (daily oral dosing) was “no significant accumulation”. Moreover, the “Mean Relative Cell Number (%)” value in data set [2] (1 nM, relative to DMSO, n = 3) was 96.1%; in data set [2] (10 nM GDC-0623 free or NP-entrapped, relative to DMSO (Table 6)), 87.8* %; in data set [2] (10 nM, relative to DMSO, n = 3), 83.9%; in data set [2] (100 nM GDC-0623, normalized versus free drug (Table 7, first group)) it was 100.0%; in data set [2] (100 nM GDC-0623 free or NP-entrapped, relative to DMSO (Table 6)), 51.4** %; in data set [2] (100 nM, relative to DMSO, n = 3), 46.8* %. In addition, the “Mean Relative Cell Number (%)” value in data set [2] (1 μM, relative to DMSO, n = 3) was 31.3** %; in data set [2] (10 μM, relative to DMSO, n = 3) it was 30.9** %; in data set [2] (printed 100 nM GDC-0623, normalized versus free drug (Table 7, second group r12-r14)) it was 100.0%. For the same compound, the “reduction in cell numbers” value in data set [2] (100 nM, compared to DMSO (vehicle)) was found to be 50%.

(Values after patent US20210322333A1, “Lignin-PLGA Biopolymers and Nanoparticles, and their Synthesis and Use” (Board of Supervisors of Louisiana State University and …, priority 2018, published 2021).)
